Columns and labels:
Mouse Brain = test: brain and plasma exposure of V1a-R antagonist lead, late-stage follow-up, in vivo study for V1a-R antagonist project, LC-MS/MS, mouse, powder samples (AID 743031); conditions: C57Bl6 mouse, 10 mg/kg PO, LC-MS/MS at 60 min, 60 min after 10 mg/kg PO
Mouse Plasma = test: as above; conditions: C57Bl6 mouse, 10 mg/kg PO, LC-MS/MS at 60 min, 60 min after 10 mg/kg PO
[1] = brain to plasma ratio, stronger effect = higher value

O=C(C1CCN(c2ccc(Cl)cn2)CC1)N(CC1CC1)c1ccc(Cl)cc1
compound concentration (Mouse Brain): 3.27 µM | brain/plasma ratio (Mouse Brain; [1]): 1.28 | compound concentration (Mouse Plasma): 2.56 µM | brain/plasma ratio (Mouse Plasma; [1]): 1.28

Source: PubChem BioAssay AID743031 (The Scripps Research Institute Molecular Screening Center, 2013)
